Measured values from US6759547B1, “5,6,7,8-tetrahydronaphthalen-2-yl 2,6-difluoroheptatrienoic acid derivatives having serum glucose reducing activity” (Allergan, Inc., priority 2003, dated 2004).

Key:
RARγ = target: T1, RARγ (Homo sapiens, UniProt P13631); assay: ligand binding assay, RARγ; details: read-out: RAR Bind. K1 γ
T1 sequence (P13631 1-454): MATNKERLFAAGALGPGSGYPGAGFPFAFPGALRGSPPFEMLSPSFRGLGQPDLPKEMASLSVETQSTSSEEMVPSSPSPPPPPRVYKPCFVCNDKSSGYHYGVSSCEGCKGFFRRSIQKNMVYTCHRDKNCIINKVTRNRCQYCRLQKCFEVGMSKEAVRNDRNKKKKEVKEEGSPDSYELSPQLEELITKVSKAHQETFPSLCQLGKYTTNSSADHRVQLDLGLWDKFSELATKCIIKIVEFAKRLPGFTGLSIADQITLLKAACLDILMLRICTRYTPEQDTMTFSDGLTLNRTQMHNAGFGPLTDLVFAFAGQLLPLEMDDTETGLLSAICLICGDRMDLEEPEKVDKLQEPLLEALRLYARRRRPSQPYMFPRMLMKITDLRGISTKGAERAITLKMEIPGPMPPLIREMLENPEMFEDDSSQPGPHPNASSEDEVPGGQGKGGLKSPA
Excerpt: (§2) The results obtained in this assay are expressed in EC50 numbers, as they are also in the chimeric receptor transactivation assay. The results of the ligand binding assay are expressed in Ki numbers.

RARα = target: T2, RARα (Homo sapiens, UniProt P10276); assay: ligand binding assay, RARα; details: read-out: RAR Bind. K1 α
T2 sequence (P10276 1-462): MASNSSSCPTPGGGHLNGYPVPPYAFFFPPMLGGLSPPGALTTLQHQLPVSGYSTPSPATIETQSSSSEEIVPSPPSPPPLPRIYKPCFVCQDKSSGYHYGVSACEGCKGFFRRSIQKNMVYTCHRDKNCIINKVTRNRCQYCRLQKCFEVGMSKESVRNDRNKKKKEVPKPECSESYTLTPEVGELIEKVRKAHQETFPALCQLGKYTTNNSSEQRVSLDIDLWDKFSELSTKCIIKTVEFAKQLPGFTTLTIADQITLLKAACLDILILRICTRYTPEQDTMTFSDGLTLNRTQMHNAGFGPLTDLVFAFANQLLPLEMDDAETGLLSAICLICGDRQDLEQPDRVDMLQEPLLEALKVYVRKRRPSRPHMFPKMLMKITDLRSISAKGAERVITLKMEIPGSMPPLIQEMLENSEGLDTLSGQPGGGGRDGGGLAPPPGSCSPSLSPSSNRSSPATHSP
Excerpt: as §2

RXRβ [1] = target: T3, RXRβ (Homo sapiens, UniProt P28702); assay: holoreceptor transactivation assay, RXRβ; assay type: cell-based; details: for RXR Trans. efficacy β: efficacy as a percentage compared to the standard compound; for EC50: holoreceptor assay, read-out: RXR Trans. EC50 β; for efficacy in activating RXRβ compared with RXRα and RXRγ: transactivation, comparison of subtypes
T3 construct: expressed in transfected cells
T3 sequence (P28702 1-533): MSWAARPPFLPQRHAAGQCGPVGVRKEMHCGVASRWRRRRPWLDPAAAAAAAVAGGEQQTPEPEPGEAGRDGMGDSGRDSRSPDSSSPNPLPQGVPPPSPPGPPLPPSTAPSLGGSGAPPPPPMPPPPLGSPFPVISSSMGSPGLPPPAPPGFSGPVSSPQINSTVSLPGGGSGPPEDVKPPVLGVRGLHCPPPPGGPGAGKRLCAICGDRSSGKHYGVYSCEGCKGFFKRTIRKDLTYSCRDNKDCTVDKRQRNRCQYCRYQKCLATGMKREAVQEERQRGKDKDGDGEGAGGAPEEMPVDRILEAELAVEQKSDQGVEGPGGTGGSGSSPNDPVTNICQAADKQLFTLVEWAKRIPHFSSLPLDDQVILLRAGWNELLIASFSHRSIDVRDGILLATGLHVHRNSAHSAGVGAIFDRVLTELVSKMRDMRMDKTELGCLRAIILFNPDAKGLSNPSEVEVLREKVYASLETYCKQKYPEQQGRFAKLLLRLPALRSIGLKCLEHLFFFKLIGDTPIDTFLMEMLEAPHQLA
Excerpt: (§1) Particularly, the transactivation data pertaining to activation of the RAR receptors were obtained in the chimeric assay, and the transactivation data pertaining to the activation of RXR receptors were obtained in the holoreceptor assay.

RXRα [2] = target: T4, RXRα (Homo sapiens, UniProt P19793); assay: holoreceptor transactivation assay, RXRα; assay type: cell-based; details: for RXR Trans. efficacy α: efficacy as a percentage compared to the standard compound; for EC50: holoreceptor assay, read-out: RXR Trans. EC50 α
T4 construct: expressed in transfected cells
T4 sequence (P19793 1-462): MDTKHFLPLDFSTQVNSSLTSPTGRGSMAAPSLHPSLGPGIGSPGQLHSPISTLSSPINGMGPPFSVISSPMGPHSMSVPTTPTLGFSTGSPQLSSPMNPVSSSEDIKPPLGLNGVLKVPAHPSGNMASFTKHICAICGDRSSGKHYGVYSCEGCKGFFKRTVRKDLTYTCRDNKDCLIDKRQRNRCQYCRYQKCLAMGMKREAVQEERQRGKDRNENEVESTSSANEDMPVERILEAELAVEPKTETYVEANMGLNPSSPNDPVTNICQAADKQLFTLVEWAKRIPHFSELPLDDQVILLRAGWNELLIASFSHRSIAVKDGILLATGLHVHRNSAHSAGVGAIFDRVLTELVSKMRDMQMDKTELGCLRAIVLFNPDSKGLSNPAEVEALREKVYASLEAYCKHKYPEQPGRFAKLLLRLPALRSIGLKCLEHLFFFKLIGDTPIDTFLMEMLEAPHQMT
Excerpt: as §1

RARβ = target: T5, RARβ (Homo sapiens, UniProt P10826); assay: chimeric receptor transactivation assay, RARβ; assay type: cell-based; details: for EC50: chimeric assay, read-out: RAR Trans. EC50 β; for RAR Trans. efficacy β: efficacy as a percentage compared to the standard compound
T5 sequence (P10826 183-417 limits assumed): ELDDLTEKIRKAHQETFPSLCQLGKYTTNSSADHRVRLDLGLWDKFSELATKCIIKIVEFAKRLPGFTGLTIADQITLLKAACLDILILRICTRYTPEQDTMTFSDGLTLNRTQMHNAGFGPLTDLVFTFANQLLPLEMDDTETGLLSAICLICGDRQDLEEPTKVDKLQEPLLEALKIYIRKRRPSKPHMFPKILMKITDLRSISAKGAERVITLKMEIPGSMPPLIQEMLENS
Excerpt: One such assay is a chimeric receptor transactivation assay which tests for agonist-like activity in the RARα RARβ and RARγ receptor subtypes, and which is based on work published by Feigner P. L. and Holm M. (1989) Focus, 112 is described in detail in U.S. Pat. No. 5,455,265. The specification of U.S. Pat. No. 5,455,265 is hereby expressly incorporated by reference.
as §1, with “Table 1 discloses the activity of certain exemplary compounds of the invention in the above-described receptor transactivation and binding assays. Particularly,” for “Particularly,”

RXRβ [3] = target: T3, RXRβ; assay: ligand binding assay, RXRβ; details: read-out: RXR Bind K1 β
Excerpt: The results of the ligand binding assay are expressed in Ki numbers.

RXRα [4] = target: T4, RXRα; assay: ligand binding assay, RXRα; details: read-out: RXR Bind K1 α
Excerpt: as §2

Ki (RARγ) [nM]	Ki (RARα) [nM]	RXR Trans. efficacy β (RXRβ [1]) [%]	EC50 (RXRβ [1]) [nM]	RXR Trans. efficacy α (RXRα [2]) [%]	EC50 (RXRα [2]) [nM]	EC50 (RARβ) [nM]	RAR Trans. efficacy β (RARβ) [%]	Ki (RXRβ [3]) [nM]	Ki (RXRα [4]) [nM]	SMILES	efficacy in activating RXRβ compared with RXRα and RXRγ (RXRβ [1])
250	1800	24	43	7	3	> 1000	25	65	11	CCCOc1cc2c(cc1\C(C)=C(F)/C=C/C(C)=C(\F)C(=O)O)C(C)(C)CCC2(C)C [Compound 11, (2Z,4E,6E)-2,6-Difluoro-3-methyl-7-(5,5,8,8-tetramethyl-3-propoxy-5,6,7,8-tetrahydro-naphthalen-2-yl)-octa-2,4,6-trienoic acid]	significantly more effective in activating the RXRβ subtype
940	260	45	91	41	9	170	24	60	12	CC/C(=C(F)/C=C/C(C)=C(\F)C(=O)O)c1cc2c(cc1OCOC)C(C)(C)CCC2(C)C [Compound 21, (2Z,4E,6E)-2,6-Difluoro-7-(3-methoxymethoxy-5,5,8,8-tetramethyl-5,6,7,8-tetrahydro-naphthalen-2-yl)-3-methyl-nona-2,4,6-trienoic acid]	significantly more effective in activating the RXRβ subtype
6400	930	43	32	30	4	95	14	20	5	CCOc1cc2c(cc1\C(CC)=C(F)/C=C/C(C)=C(\F)C(=O)O)C(C)(C)CCC2(C)C [Compound 27, (2Z,4E,6E)-7-(3-Ethoxy-5,5,8,8-tetramethyl-5,6,7,8-tetrahydro-naphthalen-2-yl)-2,6-difluoro-3-methyl-nona-2,4,6-trienoic acid]	significantly more effective in activating the RXRβ subtype
